Biological target: IspG (GcpE) (Thermus thermophilus, UniProt Q5SLI8)
Experiment: co-crystal X-ray structure
Assay type: biochemical

Sequence of IspG (GcpE) (Q5SLI8 whole entry): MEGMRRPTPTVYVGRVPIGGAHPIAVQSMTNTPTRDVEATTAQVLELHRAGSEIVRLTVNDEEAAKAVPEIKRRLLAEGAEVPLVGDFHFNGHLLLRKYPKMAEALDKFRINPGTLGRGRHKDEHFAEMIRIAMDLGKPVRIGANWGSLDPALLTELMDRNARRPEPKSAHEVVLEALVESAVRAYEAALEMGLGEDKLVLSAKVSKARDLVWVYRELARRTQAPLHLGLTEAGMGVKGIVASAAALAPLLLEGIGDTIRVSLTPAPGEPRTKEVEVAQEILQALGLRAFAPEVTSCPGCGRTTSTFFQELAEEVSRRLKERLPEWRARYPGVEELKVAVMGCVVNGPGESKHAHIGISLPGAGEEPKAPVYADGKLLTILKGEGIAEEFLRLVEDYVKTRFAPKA

Work on `O=P(O)(O)OP(=O)(O)O` [compound 6, diphosphate] yielded an IC50 of 20 µM.
